Results on 3 compounds are retold here after BigSolDB 2.1.

SMILES strings stand for the structures.

The conditions of the first data set: in n-hexane, 293.15 K.
The solubility (mole fraction) is the moles of solute divided by all moles in the saturated solution. Turning to `CCNC1=NCCC2(CCCCC2)S1`, the solubility (mole fraction) was determined as 0.0025.

For `NC1=NCCC2(CCCCC2)S1`, the solubility (mole fraction) turned out to be 3.81e-05.

Turning to `CNC1=NCCC2(CCCCC2)S1`, the solubility (mole fraction) is 5.39e-05.

The data set is the same for the next values; noted with them: in n-hexane, 298.15 K.
Take `CCNC1=NCCC2(CCCCC2)S1`: the solubility (mole fraction) was found to be 0.0028.

On to `NC1=NCCC2(CCCCC2)S1`, for which the solubility (mole fraction) is 5.62e-05.

Take `CNC1=NCCC2(CCCCC2)S1`: the solubility (mole fraction) came out at 6.26e-05.

Still in this data set, the particulars now being: in n-hexane, 303.15 K.
With `CCNC1=NCCC2(CCCCC2)S1`, the solubility (mole fraction) was determined as 0.0031.

As to `NC1=NCCC2(CCCCC2)S1`, the solubility (mole fraction) turned out to be 7.2e-05.

Compound `CNC1=NCCC2(CCCCC2)S1` gave a solubility (mole fraction) of 6.91e-05.

The data set is the same for the next values; noted with them: in n-hexane, 310.15 K.
`CCNC1=NCCC2(CCCCC2)S1`: the solubility (mole fraction) stood at 0.0037.

`NC1=NCCC2(CCCCC2)S1` gave a solubility (mole fraction) of 0.000105.

`CNC1=NCCC2(CCCCC2)S1` registered a solubility (mole fraction) of 8.03e-05.

The same data set, now with this note: in n-hexane, 315.15 K.
`CCNC1=NCCC2(CCCCC2)S1` had a solubility (mole fraction) of 0.0043.

Regarding `NC1=NCCC2(CCCCC2)S1`, the solubility (mole fraction) is 0.000129.

In turn, `CNC1=NCCC2(CCCCC2)S1` gave a solubility (mole fraction) of 8.67e-05.
